Consider 18 compounds from patent publication US20260125346A1, “Isoquinolinone Derivatives and 4H-Quinolizinone Derivatives and Pharmaceutical Compositions Thereof for the Treatment of Disease” (BeOne Medicines I GmbH, priority 2023, published 2026).

The subject of assay [1] is WT cell line SK-BR-3. The experiment in a line: Phospho-AKT (Ser473) Inhibition Assay (HTRF), SK-BR-3. Format: cell-based. As to conditions: Homo sapiens; SK-BR-3, 1 hour treatment; read-out: p-AKT Inhibition assay (S473) IC50 SK-BR-3. An outline of the steps: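 SK-BR-3 (PI3Kα WT) cells seeded overnight in MEM with insulin, then treated 1 h with 11-point 1:3 dilutions (10 μM to 0.1 nM, 0.1% DMSO). Lysates read for phospho-AKT Ser473 by HTRF after 4 h antibody incubation at room temperature. IC50 from 4-parameter fit, % inhibition normalized to DMSO (max) and 10 μM GDC0077 (min).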
A general note: In TR-FRET formats the signal depends on donor and acceptor labels being close together.

For assay [2], the target named is PI3Kα (p110/p85) kinase (wild type, "WT") (Homo sapiens, UniProt P42336). The experiment in a line: PI3Kα (p110/p85) kinase ADP-Glo Assay. Format: biochemical. Particulars: 25 uM ATP. An outline of the steps:
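IC50 values come from a four-parameter logistic fit of ADP-Glo chemiluminescence, reflecting ADP formed. Enzyme, lipid substrate and […] compound were preincubated 30 min at room temperature, then 25 µM ATP was added for a 120 min reaction in 50 mM HEPES pH7.5, 3 mM MgCl2.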
For orientation: ADP-Glo first removes unused ATP, then detects ADP through luciferase.

Assay [3] deals with WT cell line SK-BR-3. The experiment in a line: Cell Proliferation Assay (CellTiter-Glo), SK-BR-3. The assay is classed as cell-based. As to conditions: Homo sapiens, 72 h; SK-BR-3, 3 days treatment. In a few lines:
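SK-BR-3 cells treated for 3 days with compound in a 9-point series, final concentrations 10 M to 1 nM in 0.1% DMSO. Viability read by CellTiter-Glo luminescence. Relative IC50 from percent inhibition versus medium-only and DMSO controls, four-parameter logistic fit.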

The test system of assay [4] is PI3Kα H1047R mutated cell line T-47D cells. The assay is described as follows: Cell Proliferation Assay (CellTiter-Glo), T-47D. The assay is classed as cell-based. Particulars: for pIC50: Homo sapiens, T47D, 72 h, T-47D, 3 days treatment; for Selectivity: SK-BR-3/T-47D (cell proliferation): cell proliferation IC50 ratio. In a few lines:
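T-47D cells seeded overnight at 3×10^3/well, then exposed 3 days to 9-point 1:3 dilutions, final […] to 1 nM in 0.1% DMSO. CellTiter-Glo luminescence; relative IC50 from percent inhibition versus medium-only and 0.1% DMSO controls, 4-parameter logistic fit.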
A general note: Cellular ATP, detected with luciferase, serves as a proxy for viable cell number.

The structures appear in SMILES notation. pIC50: −log10 of the molar value.

Sequence of PI3Kα (p110/p85) kinase (wild type, "WT") (P42336 whole entry): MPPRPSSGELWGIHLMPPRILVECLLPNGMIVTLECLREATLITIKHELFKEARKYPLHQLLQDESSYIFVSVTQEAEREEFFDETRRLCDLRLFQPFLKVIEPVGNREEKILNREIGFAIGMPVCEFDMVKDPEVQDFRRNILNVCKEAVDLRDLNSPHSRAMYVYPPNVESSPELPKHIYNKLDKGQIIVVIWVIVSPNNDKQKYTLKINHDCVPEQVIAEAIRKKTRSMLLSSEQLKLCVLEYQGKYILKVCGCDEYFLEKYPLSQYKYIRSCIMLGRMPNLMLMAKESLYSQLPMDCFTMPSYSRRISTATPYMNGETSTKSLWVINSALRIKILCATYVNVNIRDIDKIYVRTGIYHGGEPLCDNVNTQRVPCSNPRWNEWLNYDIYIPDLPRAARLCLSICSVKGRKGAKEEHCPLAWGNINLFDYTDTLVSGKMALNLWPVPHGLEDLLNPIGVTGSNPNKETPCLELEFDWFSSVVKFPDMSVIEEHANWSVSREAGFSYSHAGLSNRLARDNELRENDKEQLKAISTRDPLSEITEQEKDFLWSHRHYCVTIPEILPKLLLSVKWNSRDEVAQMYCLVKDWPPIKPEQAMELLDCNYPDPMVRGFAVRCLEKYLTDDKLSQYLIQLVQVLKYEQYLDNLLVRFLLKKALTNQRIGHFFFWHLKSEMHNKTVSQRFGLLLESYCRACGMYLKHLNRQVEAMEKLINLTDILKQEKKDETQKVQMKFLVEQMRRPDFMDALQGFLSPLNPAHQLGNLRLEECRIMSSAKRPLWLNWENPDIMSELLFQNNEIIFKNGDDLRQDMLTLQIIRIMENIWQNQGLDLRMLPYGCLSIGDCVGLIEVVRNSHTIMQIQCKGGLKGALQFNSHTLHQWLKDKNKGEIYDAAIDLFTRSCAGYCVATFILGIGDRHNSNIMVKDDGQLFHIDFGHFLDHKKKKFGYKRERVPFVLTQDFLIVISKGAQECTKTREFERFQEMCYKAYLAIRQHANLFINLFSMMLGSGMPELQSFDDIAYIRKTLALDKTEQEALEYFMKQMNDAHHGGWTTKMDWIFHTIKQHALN
Sequence of PI3Kα (p110/p85) kinase (wild type, "WT") (P27986 whole entry partner): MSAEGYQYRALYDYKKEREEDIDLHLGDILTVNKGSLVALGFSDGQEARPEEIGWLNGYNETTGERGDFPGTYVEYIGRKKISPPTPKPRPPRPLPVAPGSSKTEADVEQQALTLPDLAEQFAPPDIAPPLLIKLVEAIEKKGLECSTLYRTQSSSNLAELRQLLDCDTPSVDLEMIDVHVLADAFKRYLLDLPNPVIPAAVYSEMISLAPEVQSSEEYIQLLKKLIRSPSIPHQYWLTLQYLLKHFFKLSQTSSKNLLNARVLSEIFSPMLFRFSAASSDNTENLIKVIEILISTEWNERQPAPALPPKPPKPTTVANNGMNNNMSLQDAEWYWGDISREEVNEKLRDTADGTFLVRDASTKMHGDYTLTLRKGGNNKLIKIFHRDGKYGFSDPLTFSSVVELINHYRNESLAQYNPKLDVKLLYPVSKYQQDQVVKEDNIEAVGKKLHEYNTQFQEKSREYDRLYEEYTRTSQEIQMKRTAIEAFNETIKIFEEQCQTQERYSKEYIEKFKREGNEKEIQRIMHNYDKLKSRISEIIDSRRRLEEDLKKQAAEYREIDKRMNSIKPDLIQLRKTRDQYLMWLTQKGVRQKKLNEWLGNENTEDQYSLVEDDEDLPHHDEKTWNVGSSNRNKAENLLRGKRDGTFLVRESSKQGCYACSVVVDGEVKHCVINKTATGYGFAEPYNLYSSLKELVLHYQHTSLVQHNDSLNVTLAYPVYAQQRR

In general, pIC50 refers to the IC50 on a negative log10 scale, so that one unit is a factor of ten. On to `Cc1cc(C(C)Nc2ccccc2C(=O)O)c2cc(-c3ccc(N4CCC(C)(O)CC4)nc3)n(C)c(=O)c2c1` (stereo not drawn) [Example 72, 2-((1-(3-(6-(4-hydroxy-4-methylpiperidin-1-yl)pyridin-3-yl)-2,7-dimethyl-1-oxo-1,2-dihydroisoquinolin-5-yl)ethyl)amino)benzoic acid], for which the pIC50 with WT cell line SK-BR-3 [1] is under 5.00; in assay [2], 4.69; in the assay with WT cell line SK-BR-3 [3], under 5.00; in assay [4], 6.76. Moreover, the “Selectivity: SK-BR-3/T-47D (cell proliferation)” value (shortened to “Selectivity: SK-BR-3/T-47D”) in assay [4] is over 57.

On to `Cc1cc(C(C)Nc2ccccc2C(=O)O)c2cc(-c3ccc(C4(O)CCOCC4)cc3)n(C)c(=O)c2c1` (stereo not drawn) [Example 73, 2-((1-(3-(4-(4-hydroxytetrahydro-2H-pyran-4-yl)phenyl)-2,7-dimethyl-1-oxo-1,2-dihydroisoquinolin-5-yl)ethyl)amino)benzoic acid], for which the pIC50 was under 5.00 with WT cell line SK-BR-3 [1], 4.58 in assay [2], under 5.00 in the assay with WT cell line SK-BR-3 [3] and 6.77 in assay [4]. Also, in assay [4], the “Selectivity: SK-BR-3/T-47D” value is recorded as over 59.

Take `COC1(c2ccc(-c3cc4c(C(C)Nc5ccccc5C(=O)O)cc(C)cc4c(=O)n3C)cc2)CCOCC1` (stereo not drawn) [Example 74, 2-((1-(3-(4-(4-methoxytetrahydro-2H-pyran-4-yl)phenyl)-2,7-dimethyl-1-oxo-1,2-dihydroisoquinolin-5-yl)ethyl)amino)benzoic acid]: the pIC50 is 5.36 in the assay with WT cell line SK-BR-3 [1], 4.88 in assay [2], under 5.00 in the assay with WT cell line SK-BR-3 [3] and 7.06 in assay [4]. The “Selectivity: SK-BR-3/T-47D” value in assay [4] is reported as over 115.

Regarding `Cc1cc(C(C)Nc2ccccc2C(=O)O)c2cc(-c3ccc4c(c3)C(=O)N(C)C4)n(C)c(=O)c2c1` (stereo not drawn) [Example 75, 2-((1-(2,7-dimethyl-3-(2-methyl-3-oxoisoindolin-5-yl)-1-oxo-1,2-dihydroisoquinolin-5-yl)ethyl)amino)benzoic acid], the pIC50 was under 5.00 with WT cell line SK-BR-3 [1], 4.50 in assay [2], under 5.00 with WT cell line SK-BR-3 [3] and 6.57 in assay [4]. For the same compound, the “Selectivity: SK-BR-3/T-47D” value in assay [4] is given as over 37.

Regarding `Cc1cc(C(C)Nc2ccccc2C(=O)O)c2cc(C3=CCN(c4ccccc4)C3)n(C)c(=O)c2c1` (stereo not drawn) [Example 76, 2-((1-(2,7-dimethyl-1-oxo-3-(1-phenyl-2,5-dihydro-1H-pyrrol-3-yl)-1,2-dihydroisoquinolin-5-yl)ethyl)amino)benzoic acid], the pIC50 in the assay with WT cell line SK-BR-3 [1] is 5.27; in assay [2], 4.93; in the assay with WT cell line SK-BR-3 [3], under 5.00; in assay [4], 6.17. Moreover, the “Selectivity: SK-BR-3/T-47D” value in assay [4] is reported as over 14.8.

Consider `Cc1cc(C(C)Nc2ccccc2C(=O)O)c2cc(-c3ccn(-c4ccccc4)c3)n(C)c(=O)c2c1` (stereo not drawn) [Example 77, 2-((1-(2,7-dimethyl-1-oxo-3-(1-phenyl-1H-pyrrol-3-yl)-1,2-dihydroisoquinolin-5-yl)ethyl)amino)benzoic acid], for which the pIC50 with WT cell line SK-BR-3 [1] was 5.69; in assay [2] it was 5.16; in the assay with WT cell line SK-BR-3 [3], under 5.00; in assay [4], 5.86. Moreover, the “Selectivity: SK-BR-3/T-47D” value in assay [4] is reported as over 7.1.

On to `Cc1cc(C(C)Nc2ccccc2C(=O)O)c2cc(-c3ccc(CN4CCOCC4)nc3)n(C)c(=O)c2c1` (stereo not drawn) [Example 78, 2-((1-(2,7-dimethyl-3-(6-(morpholinomethyl)pyridin-3-yl)-1-oxo-1,2-dihydroisoquinolin-5-yl)ethyl)amino)benzoic acid], for which the pIC50 in the assay with WT cell line SK-BR-3 [1] is under 5.00; in assay [2] it was 4.18; in the assay with WT cell line SK-BR-3 [3] it was under 5.00; in assay [4] it was 6.48. In assay [4], the “Selectivity: SK-BR-3/T-47D” value is listed as over 30.

Consider `Cc1cc(C(C)Nc2ccccc2C(=O)O)c2cc(-c3ccc(P(C)(C)=O)cc3)n(C)c(=O)c2c1` (stereo not drawn) [Example 79, 2-((1-(3-(4-(dimethylphosphoryl)phenyl)-2,7-dimethyl-1-oxo-1,2-dihydroisoquinolin-5-yl)ethyl)amino)benzoic acid], for which the pIC50 with WT cell line SK-BR-3 [1] is under 5.00; in assay [2] it was 4.23; in the assay with WT cell line SK-BR-3 [3] it was under 5.00; in assay [4] it was under 5.00.

With `Cc1cc(C(C)Nc2ccccc2C(=O)O)c2cc(C#Cc3cnn(C)c3)n(C)c(=O)c2c1` (stereo not drawn) [Example 80, 2-((1-(2,7-dimethyl-3-((1-methyl-1H-pyrazol-4-yl)ethynyl)-1-oxo-1,2-dihydroisoquinolin-5-yl)ethyl)amino)benzoic acid], the pIC50 in the assay with WT cell line SK-BR-3 [1] was 5.51; in assay [2], 5.48; in the assay on WT cell line SK-BR-3 [3] it was under 5.00; in assay [4], 6.60. Further, the “Selectivity: SK-BR-3/T-47D” value in assay [4] is given as over 39.4.

On to `CCn1c(-c2ccc(F)cc2)cc2c(C(C)Nc3ccc(Cl)nc3C(=O)O)cc(C)cc2c1=O` (stereo not drawn) [Example 81, 6-chloro-3-((1-(2-ethyl-3-(4-fluorophenyl)-7-methyl-1-oxo-1,2-dihydroisoquinolin-5-yl)ethyl)amino)picolinic acid], for which the pIC50 in the assay with WT cell line SK-BR-3 [1] is 5.73; in assay [2], 5.42; in the assay with WT cell line SK-BR-3 [3], under 5.00; in assay [4], 6.11. Besides, in assay [4], the “Selectivity: SK-BR-3/T-47D” value is given as over 13.

Turning to `Cc1cc(C(C)Nc2ccccc2S(C)(=O)=O)c2cc(-c3ccccc3)n(C)c(=O)c2c1` (stereo not drawn) [Example 82, 2,7-dimethyl-5-(1-((2-(methylsulfonyl)phenyl)amino)ethyl)-3-phenylisoquinolin-1(2H)-one], the pIC50 is 5.69 with WT cell line SK-BR-3 [1], 5.48 in assay [2], under 5.00 in the assay with WT cell line SK-BR-3 [3] and under 5.00 in assay [4].

For `Cc1cc(C(C)Nc2ccccc2C(=O)O)c2cc(-c3ccc(N4CCCC4)cc3)n(C)c(=O)c2c1` (stereo not drawn) [Example 84, 2-((1-(2,7-dimethyl-1-oxo-3-(4-(pyrrolidin-1-yl)phenyl)-1,2-dihydroisoquinolin-5-yl)ethyl)amino)benzoic acid], the pIC50 in the assay on WT cell line SK-BR-3 [1] is 5.51; in assay [2], 4.83; with WT cell line SK-BR-3 [3] it was under 5.00; in assay [4], 6.33. For the same compound, the “Selectivity: SK-BR-3/T-47D” value in assay [4] is on record as over 22.

For the compound `Cc1cc(C(C)Nc2ccccc2C(=O)O)c2cc(-c3ccc(C(F)(F)F)nc3)n(C)c(=O)c2c1` (stereo not drawn) [Example 86, 2-((1-(2,7-dimethyl-1-oxo-3-(6-(trifluoromethyl)pyridin-3-yl)-1,2-dihydroisoquinolin-5-yl)ethyl)amino)benzoic acid], the negative logarithm of the IC50 (pIC50) in the assay on WT cell line SK-BR-3 [1] is under 5.00; in assay [2], 4.82; in the assay on WT cell line SK-BR-3 [3], under 5.00; in assay [4], 6.43. Besides, the “Selectivity: SK-BR-3/T-47D” value in assay [4] is over 26.6.

For `Cc1cc(C(C)Nc2ccccc2C(=O)O)c2cc(-c3cnn(CC45CC6C[C@H](C4)C[C@H](C6)C5)c3C)n(C)c(=O)c2c1` (stereo partly drawn) [Example 87, 2-((1-(3-(1-(((3S,5S)-adamantan-1-yl)methyl)-5-methyl-1H-pyrazol-4-yl)-2,7-dimethyl-1-oxo-1,2-dihydroisoquinolin-5-yl)ethyl)amino)benzoic acid], the pIC50 in the assay on WT cell line SK-BR-3 [1] is 5.55; in assay [2], 4.45; in the assay on WT cell line SK-BR-3 [3] it was under 5.00; in assay [4] it was 6.05. Also, in assay [4], the “Selectivity: SK-BR-3/T-47D” value is recorded as over 11.2.

For the compound `Cc1cc(C(C)Nc2ccccc2C(=O)O)c2cc(C#Cc3ccn(C)n3)n(C)c(=O)c2c1` (stereo not drawn) [Example 88, 2-((1-(2,7-dimethyl-3-((1-methyl-1H-pyrazol-3-yl)ethynyl)-1-oxo-1,2-dihydroisoquinolin-5-yl)ethyl)amino)benzoic acid], the pIC50 is 5.71 in the assay with WT cell line SK-BR-3 [1], 5.76 in assay [2], under 5.00 with WT cell line SK-BR-3 [3] and 6.16 in assay [4]. The “Selectivity: SK-BR-3/T-47D” value in assay [4] is given as over 14.

In the case of `Cc1cc(C(C)Nc2ccccc2C(=O)O)c2cc(C#CC3(O)CCCC3)n(C)c(=O)c2c1` (stereo not drawn) [Example 89, 2-((1-(3-((1-hydroxycyclopentyl)ethynyl)-2,7-dimethyl-1-oxo-1,2-dihydroisoquinolin-5-yl)ethyl)amino)benzoic acid], the pIC50 in the assay on WT cell line SK-BR-3 [1] is 5.17; in assay [2], 5.16; in the assay on WT cell line SK-BR-3 [3] it was under 5.00; in assay [4] it was 6.03. Besides, the “Selectivity: SK-BR-3/T-47D” value in assay [4] is given as over 11.

Consider `Cc1cc(C(C)Nc2ccccc2C(=O)O)c2cc(C#Cc3cnn(-c4ccccc4)c3)n(C)c(=O)c2c1` (stereo not drawn) [Example 94, 2-((1-(2,7-dimethyl-1-oxo-3-((1-phenyl-1H-pyrazol-4-yl)ethynyl)-1,2-dihydroisoquinolin-5-yl)ethyl)amino)benzoic acid], for which the pIC50 in the assay with WT cell line SK-BR-3 [1] is under 5.00; in assay [2], under 4.00; in the assay on WT cell line SK-BR-3 [3], under 5.00; in assay [4] it was under 5.00.

Turning to `Cc1cc(C(C)Nc2ccccc2C(=O)O)c2cc(-c3ccc(F)cc3)n(C3COC3)c(=O)c2c1` (stereo not drawn) [Example 95, 2-((1-(3-(4-fluorophenyl)-7-methyl-2-(oxetan-3-yl)-1-oxo-1,2-dihydroisoquinolin-5-yl)ethyl)amino)benzoic acid], the pIC50 with WT cell line SK-BR-3 [1] is 5.87; in assay [2], 5.36; with WT cell line SK-BR-3 [3], under 5.00; in assay [4] it was 6.55. In assay [4], the “Selectivity: SK-BR-3/T-47D” value is over 35.
